# Reference: patent US20130065818A1, “Arylamide Compounds And Compositions And Uses Thereof” (POLYMEDIX, priority 2006, published 2013)
# Where two headings read alike, the source gives them in different places.
# Legend:
# Assay type in all cases: cell-based
# [1] = tested on: Fluoroquinolone-Resistant Methicillin-Resistant Staphylococcus aureus Strain K950; assay: MIC characterization of strain K950; settings: read-out: MIC (Minimum Inhibitory Concentration)
# E. faecalis ATCC 29212 = assay: MIC, laboratory strains (Example 8)
# [2] = tested on: Moraxella species (including Moraxella catarrhalis); assay: MIC, 25 ocular isolates, broth microdilution (Example 8)
# Method: (§1) Mueller-Hinton Broth supplemented with 2% lysed horse blood in tubes was inoculated with 25 ocular isolates of Streptococcus pneumoniae, Streptococcus viridans group, and Moraxella species (including Moraxella catarrhalis) plus two controls (Staphylococcus aureus and E. coli) and incubated at 37° C. overnight. Additionally, Mueller-Hinton Broth in tubes was inoculated with two controls (Staphylococcus aureus and E. coli) and incubated at 37° C. overnight on a shaker set at 250 rpm.
# (§2) On the day of testing, a 640 μg/ml (1280 μg/ml for Serratia marcescens and Pseudomonas aeruginosa) concentration was prepared from a 1% stock solution in 0.01% acetic acid, 0.2% BSA in polypropylene tubes.
# (§3) Serial doubling dilutions in 0.01% acetic acid, 0.2% BSA in 96 well polypropylene plates, which are used as reservoirs for the inoculation of the test plates, were carried out to obtain serial dilutions of test agents at 10 times the required test concentrations: 640, 320, 160, 80, 40, 20, 10, 5, 2.5, 1.25, and 0.625 μg/ml (1280, 640, 320, 160, 80, 40, 20, 10, 5, 2.5, and 1.25 μg/ml for Serratia marcescens and Pseudomonas aeruginosa).
# (§4) Ten μl of diluted 10×test agents was added to each well of one row of the 96 well polypropylene plates from column 2 to column 12 (column 1 is a control for bacteria alone, with no peptide). Test agent concentrations in columns 2-12 were as follows: 64, 32, 16, 8, 4, 2, 1, 0.5, 0.25, 0.125, and 0.0625 μg/ml (128, 64, 32, 16, 8, 4, 2, 1, 0.5, 0.25, and 0.125 μg/ml for Serratia marcescens and Pseudomonas aeruginosa). The same peptide was in each of the 8 rows. One plate contained dilutions of one test agent and 8 bacterial isolates.
# (§5) On the day of testing, the overnight bacterial broth cultures of Streptococcus pneumoniae, Streptococcus viridans and Moraxella species (including Moraxella catarrhalis) plus two controls (Staphylococcus aureus and E. coli) were diluted in 5 ml of trypticase soy broth to yield turbidity equal to a 0.5 McFarland standard. The final inoculum for MIC testing for Streptococcus pneumoniae, Streptococcus viridans and Moraxella species (including Moraxella catarrhalis) was achieved by placing 0.1 ml of the turbidity adjusted sample to 5 ml of Mueller-Hinton broth containing 2% lysed horse red blood cells.
# (§6) Ninety μl of the bacterial suspensions was dispensed in each well from column 1 to column 12. Each bacterial isolate was placed in one row of a 96 well polypropylene plate containing the test agents. The plates were placed on shaker at 15 minutes at room temperature, and then incubated at 37° C. overnight. MICs were determined visually as the lowest concentration of drug that inhibits visible bacterial growth.
# [3] = tested on: Streptococcus viridans group; assay: as above
# Method: as §1, §2, §3, §4, §5, §6
# Streptococcus pneumoniae = assay: as above
# Method: as §1, §2, §3, §4, §5, §6
# [4] = n=25 isolates, >64 replaced with 128
# [5] = 25 isolates, Summary of Results, >64 was Replaced with 128
structure (smiles),measurement,setting,value
N=C(N)NCCCCC(=O)Nc1cc(C(F)(F)F)cc(NC(=O)c2cc(C(=O)Nc3cc(C(F)(F)F)cc(NC(=O)CCCCNC(=N)N)c3SCCN)ncn2)c1SCCN [Oligomer 2],MIC,[1],0.25 µg/mL
N=C(N)NCCCCC(=O)Nc1cc(C(F)(F)F)cc(NC(=O)c2cnc(C(=O)Nc3cc(C(F)(F)F)cc(NC(=O)CCCCNC(=N)N)c3SCCN)cn2)c1SCCN [Oligomer 5],MIC,E. faecalis ATCC 29212,1.56 µg/mL
same,MIC,"[2]; Moraxella, 25 ocular isolates, Mueller-Hinton broth with 2% lysed horse red blood cells, read-out: Median MIC",≤ 4 µg/mL
same,MIC,"[2]; Moraxella, isolate 1 K1614 - MS, read-out: MIC",64 µg/mL
same,MIC,"[2]; Moraxella, isolate 2 K1661 - MS, read-out: MIC",16 µg/mL
same,MIC,"[2]; Moraxella, isolate 3 K1643 - MS, read-out: MIC",0.125 µg/mL
same,MIC,"[2]; Moraxella, isolate 4 K1640 - MS, read-out: MIC",8 µg/mL
same,MIC,"[2]; Moraxella, isolate 5 B1431 - MS, read-out: MIC",0.5 µg/mL
same,MIC,"[2]; Moraxella, isolate 6 B1429 - MS, read-out: MIC",1 µg/mL
same,MIC,"[2]; Moraxella, isolate 7 B1418 - MS, read-out: MIC",0.25 µg/mL
same,MIC,"[2]; Moraxella, isolate 8 K1784 - MS, read-out: MIC",0.25 µg/mL
same,MIC,"[2]; Moraxella, isolate 9 K1773 - MS, read-out: MIC",0.25 µg/mL
same,MIC,"[2]; Moraxella, isolate 10 K1369 - MS, read-out: MIC",2 µg/mL
same,MIC,"[2]; Moraxella, isolate 11 B1275 - MS, read-out: MIC",0.125 µg/mL
same,MIC,"[2]; Moraxella, isolate 12 B1221 - MS, read-out: MIC",0.125 µg/mL
same,MIC,"[2]; Moraxella, isolate 13 B1172 - MS, read-out: MIC",> 64 µg/mL
same,MIC,"[2]; Moraxella, isolate 14 E542 - MS, read-out: MIC",2 µg/mL
same,MIC,"[2]; Moraxella, isolate 15 K678 - MS, read-out: MIC",0.5 µg/mL
same,MIC,"[2]; Moraxella, isolate 16 K660 - MS, read-out: MIC",0.25 µg/mL
same,MIC,"[2]; Moraxella, isolate 17 K599 - MC, read-out: MIC",0.25 µg/mL
same,MIC,"[2]; Moraxella, isolate 18 K1650 - MC, read-out: MIC",0.25 µg/mL
same,MIC,"[2]; Moraxella, isolate 19 K1373 - MC, read-out: MIC",0.125 µg/mL
same,MIC,"[2]; Moraxella, isolate 20 K1553 - MC, read-out: MIC",2 µg/mL
same,MIC,"[2]; Moraxella, isolate 21 K1453 - MC, read-out: MIC",64 µg/mL
same,MIC,"[2]; Moraxella, isolate 22 K1227 - MC, read-out: MIC",1 µg/mL
same,MIC,"[2]; Moraxella, isolate 23 B1102 - MC, read-out: MIC",0.5 µg/mL
same,MIC,"[2]; Moraxella, isolate 24 K1819 - MC, read-out: MIC",32 µg/mL
same,MIC,"[2]; Moraxella, isolate 25 K1855 - MC, read-out: MIC",8 µg/mL
same,MIC50,"[2]; Moraxella, n=25 isolates, >64 replaced with 128, read-out: MIC50",0.5 µg/mL
same,MIC90,"[2]; Moraxella, n=25 isolates, >64 replaced with 128, read-out: MIC90",32 µg/mL
same,MIC,"[2]; Moraxella, n=25 isolates, >64 replaced with 128, read-out: Median MIC",0.5 µg/mL
same,MIC50,[2]; [4],0.5 µg/mL
same,MIC90,[2]; [4],32 µg/mL
same,Range of MICs,[2]; [4],0.125 to 128 µg/mL
same,MIC50,"[3]; 25 isolates, Row 13",16 µg/mL
same,MIC90,"[3]; 25 isolates, Row 22, >64 was Replaced with 128",128 µg/mL
same,Range of MICs,[3]; [5],0.5 to 128 µg/mL
same,MIC,"[3]; Streptococcus viridans, 25 ocular isolates, Mueller-Hinton broth with 2% lysed horse red blood cells, read-out: Median MIC",16 µg/mL
same,MIC,"[3]; Streptococcus viridans, isolate 1—K1684, read-out: MIC",8 µg/mL
same,MIC,"[3]; Streptococcus viridans, isolate 2—K1680, read-out: MIC",64 µg/mL
same,MIC,"[3]; Streptococcus viridans, isolate 3—E546, read-out: MIC",8 µg/mL
same,MIC,"[3]; Streptococcus viridans, isolate 4—E272, read-out: MIC",16 µg/mL
same,MIC,"[3]; Streptococcus viridans, isolate 5—E506, read-out: MIC",> 64 µg/mL
same,MIC,"[3]; Streptococcus viridans, isolate 6—E496, read-out: MIC",0.5 µg/mL
same,MIC,"[3]; Streptococcus viridans, isolate 7—E456, read-out: MIC",16 µg/mL
same,MIC,"[3]; Streptococcus viridans, isolate 8—E432, read-out: MIC",8 µg/mL
same,MIC,"[3]; Streptococcus viridans, isolate 9—E423, read-out: MIC",> 64 µg/mL
same,MIC,"[3]; Streptococcus viridans, isolate 10—E418, read-out: MIC",> 64 µg/mL
same,MIC,"[3]; Streptococcus viridans, isolate 11—E412, read-out: MIC",8 µg/mL
same,MIC,"[3]; Streptococcus viridans, isolate 12—E409, read-out: MIC",32 µg/mL
same,MIC,"[3]; Streptococcus viridans, isolate 13—E405, read-out: MIC",> 64 µg/mL
same,MIC,"[3]; Streptococcus viridans, isolate 14—E404, read-out: MIC",> 64 µg/mL
same,MIC,"[3]; Streptococcus viridans, isolate 15—E396, read-out: MIC",32 µg/mL
same,MIC,"[3]; Streptococcus viridans, isolate 16—E262, read-out: MIC",4 µg/mL
same,MIC,"[3]; Streptococcus viridans, isolate 17—E362, read-out: MIC",16 µg/mL
same,MIC,"[3]; Streptococcus viridans, isolate 18—E359, read-out: MIC",32 µg/mL
same,MIC,"[3]; Streptococcus viridans, isolate 19—E348, read-out: MIC",16 µg/mL
same,MIC,"[3]; Streptococcus viridans, isolate 20—E344, read-out: MIC",4 µg/mL
same,MIC,"[3]; Streptococcus viridans, isolate 21—E308, read-out: MIC",4 µg/mL
same,MIC,"[3]; Streptococcus viridans, isolate 22—E294, read-out: MIC",2 µg/mL
same,MIC,"[3]; Streptococcus viridans, isolate 23—E292, read-out: MIC",0.5 µg/mL
same,MIC,"[3]; Streptococcus viridans, isolate 24—E285, read-out: MIC",0.5 µg/mL
same,MIC,"[3]; Streptococcus viridans, isolate 25—E265, read-out: MIC",8 µg/mL
same,MIC,"[3]; Streptococcus viridans, n=25 per group, read-out: Median MIC",16 µg/mL
same,MIC90,"[3]; Streptococcus viridans, 25 isolates, Summary of Results, >64 was Replaced with 128, read-out: MIC90",128 µg/mL
same,MIC50,"[3]; Streptococcus viridans, 25 isolates, Summary of Results, read-out: MIC50",16 µg/mL
same,MIC,"[3]; Streptococcus viridans, 25 isolates, Summary of Results, read-out: Median MIC",16 µg/mL
same,MIC50,[3]; n=25 per group,16 µg/mL
same,MIC90,[3]; n=25 per group,128 µg/mL
same,Range of MICs,[3]; n=25 per group,0.5 to 128 µg/mL
same,MIC50,"Streptococcus pneumoniae; 25 isolates, Row 13",4 µg/mL
same,MIC90,"Streptococcus pneumoniae; 25 isolates, Row 22",16 µg/mL
same,Range of MICs,Streptococcus pneumoniae; [5],4 to 128 µg/mL
same,MIC,"Streptococcus pneumoniae; Streptococcus pneumoniae, 25 ocular isolates, Mueller-Hinton broth with 2% lysed horse red blood cells, read-out: Median MIC",≤ 4 µg/mL
same,MIC,"Streptococcus pneumoniae; Streptococcus pneumoniae, isolate 1—B1386, read-out: MIC",> 64 µg/mL
same,MIC,"Streptococcus pneumoniae; Streptococcus pneumoniae, isolate 2—B1380, read-out: MIC",4 µg/mL
same,MIC,"Streptococcus pneumoniae; Streptococcus pneumoniae, isolate 3—B1378, read-out: MIC",0.5 µg/mL
same,MIC,"Streptococcus pneumoniae; Streptococcus pneumoniae, isolate 4—B1377, read-out: MIC",8 µg/mL
same,MIC,"Streptococcus pneumoniae; Streptococcus pneumoniae, isolate 5—B1373, read-out: MIC",8 µg/mL
same,MIC,"Streptococcus pneumoniae; Streptococcus pneumoniae, isolate 6—B1367, read-out: MIC",16 µg/mL
same,MIC,"Streptococcus pneumoniae; Streptococcus pneumoniae, isolate 7—B1355, read-out: MIC",8 µg/mL
same,MIC,"Streptococcus pneumoniae; Streptococcus pneumoniae, isolate 8—B1353, read-out: MIC",4 µg/mL
same,MIC,"Streptococcus pneumoniae; Streptococcus pneumoniae, isolate 9—B1351, read-out: MIC",1 µg/mL
same,MIC,"Streptococcus pneumoniae; Streptococcus pneumoniae, isolate 10—B1339, read-out: MIC",2 µg/mL
same,MIC,"Streptococcus pneumoniae; Streptococcus pneumoniae, isolate 11—B1337, read-out: MIC",1 µg/mL
same,MIC,"Streptococcus pneumoniae; Streptococcus pneumoniae, isolate 12—B1335, read-out: MIC",1 µg/mL
same,MIC,"Streptococcus pneumoniae; Streptococcus pneumoniae, isolate 13—B1334, read-out: MIC",1 µg/mL
same,MIC,"Streptococcus pneumoniae; Streptococcus pneumoniae, isolate 14—B1333, read-out: MIC",1 µg/mL
same,MIC,"Streptococcus pneumoniae; Streptococcus pneumoniae, isolate 15—B1255, read-out: MIC",1 µg/mL
same,MIC,"Streptococcus pneumoniae; Streptococcus pneumoniae, isolate 16—B1288, read-out: MIC",8 µg/mL
same,MIC,"Streptococcus pneumoniae; Streptococcus pneumoniae, isolate 17—B1287, read-out: MIC",16 µg/mL
same,MIC,"Streptococcus pneumoniae; Streptococcus pneumoniae, isolate 18—B1272, read-out: MIC",1 µg/mL
same,MIC,"Streptococcus pneumoniae; Streptococcus pneumoniae, isolate 19—B1264, read-out: MIC",1 µg/mL
same,MIC,"Streptococcus pneumoniae; Streptococcus pneumoniae, isolate 20—B1252, read-out: MIC",16 µg/mL
same,MIC,"Streptococcus pneumoniae; Streptococcus pneumoniae, isolate 21—B1245, read-out: MIC",2 µg/mL
same,MIC,"Streptococcus pneumoniae; Streptococcus pneumoniae, isolate 22—B1211, read-out: MIC",8 µg/mL
same,MIC,"Streptococcus pneumoniae; Streptococcus pneumoniae, isolate 23—B1213, read-out: MIC",16 µg/mL
same,MIC,"Streptococcus pneumoniae; Streptococcus pneumoniae, isolate 24—B1208, read-out: MIC",8 µg/mL
same,MIC,"Streptococcus pneumoniae; Streptococcus pneumoniae, isolate 25—B1214, read-out: MIC",4 µg/mL
same,MIC,"Streptococcus pneumoniae; Streptococcus pneumoniae, n=25 per group, read-out: Median MIC",4 µg/mL
same,MIC50,"Streptococcus pneumoniae; Streptococcus pneumoniae, 25 isolates, Summary of Results, read-out: MIC50",4 µg/mL
same,MIC90,"Streptococcus pneumoniae; Streptococcus pneumoniae, 25 isolates, Summary of Results, read-out: MIC90",16 µg/mL
same,MIC,"Streptococcus pneumoniae; Streptococcus pneumoniae, 25 isolates, Summary of Results, read-out: Median MIC",4 µg/mL
same,MIC50,Streptococcus pneumoniae; n=25 per group,4 µg/mL
same,MIC90,Streptococcus pneumoniae; n=25 per group,16 µg/mL
same,Range of MICs,Streptococcus pneumoniae; n=25 per group,4 to 128 µg/mL
